Experimental findings from patent publication US6653307B2, “1-aryl-4-oxo-1,4-dihydro-3-quinolinecarboxamides as antiviral agents” (Pharmacia & Upjohn Company, priority 2000, dated 2003) are described below.

SMILES strings stand for the structures.

One data set concerns the target HSV polymerase (Human herpesvirus 1, UniProt P04293). The data set can be described thus: HSV polymerase assay (Table 1). The class given is biochemical. As to the method:
[Worded in the source for another target; this target is reported under the same test.] (§1) The HCMV polymerase assay is performed using a scintillation proximity assay (SPA) as described in several references, such as N.D. Cook, et al., Pharmaceutical Manufacturing International, pages 49-53 (1992); K. Takeuchi, Laboratory Practice, September issue (1992); U.S. Pat. No. 4,568,649 (1986); which are incorporated by reference herein. Reactions are performed in 96-well plates. The assay is conducted in 100 μl volume with 5.4 mM HEPES (pH 7.5), 11.7 mM KCl, 4.5 mM MgCl2, 0.36 mg/ml BSA, and 90 nM ^3H-dTTP. Assays are run with and without CHAPS, (3-[(3-cholamidopropyl)-dimethylammonio]-1-propane-sulfonate) at a final concentration of 2 mM. HCMV polymerase is diluted in enzyme dilution buffer containing 50% glycerol, 250 mM NaCl, 10 mM HEPES (pH 7.5), 100 μg/ml BSA, and 0.01% sodium azide. The HCMV polymerase, which is expressed in recombinant baculovirus-infected SF-9 cells and purified according to literature procedures, is added at 10% (or 10 μl) of the final reaction volume, i.e., […]. Compounds are diluted in 50% DMSO and 10 μl are added to each well. Control wells contain an equivalent concentration of DMSO. Unless noted otherwise, reactions are initiated via the addition of 6 nM biotinylated poly(dA)-oligo(dT) template/primer to reaction mixtures containing the enzyme, substrate, and compounds of interest. Plates are incubated in a 25 C or 37 C H2O bath and terminated via the addition of 40 μl/reaction of 0.5 M EDTA (pH 8) per well. Reactions are terminated within the time-frame during which substrate incorporation is linear and varied depending upon the enzyme and conditions used, i.e., 30 min. for HCMV polymerase. Ten μl of streptavidin-SPA beads (20 mg/ml in PBS/10% glycerol) are added following termination of the reaction. Plates are incubated 10 min. at 37 C, then equilibrated to room temperature, and counted on a Packard Topcount. Linear regressions are performed and IC50's are calculated using computer software. A modified version of the above HCMV polymerase assay is performed as described above, but with the following changes: Compounds are diluted in 100% DMSO until final dilution into assay buffer. In the previous assay, compounds are diluted in 50% DMSO. 4.5 mM dithiotherotol (DTT) is added to the polymerase buffer.

A further data set has as its target VZV polymerase (Varicella-zoster virus, UniProt P09252). The data set can be described thus: VZV polymerase assay (Table 1). The format is biochemical. As to the method: [Worded in the source for another target; this target is reported under the same test.] as §1
Another data set concerns the target T1, HCMV polymerase (Human cytomegalovirus, UniProt P08546).
T1 construct: made in house; host or cells: recombinant baculovirus-infected SF-9 cells
The data set can be described thus: HCMV polymerase scintillation proximity assay (SPA). The format is biochemical. The settings on record: 3H-dTTP incorporation. As to the method:
as §1

T1 sequence (P08546 whole entry): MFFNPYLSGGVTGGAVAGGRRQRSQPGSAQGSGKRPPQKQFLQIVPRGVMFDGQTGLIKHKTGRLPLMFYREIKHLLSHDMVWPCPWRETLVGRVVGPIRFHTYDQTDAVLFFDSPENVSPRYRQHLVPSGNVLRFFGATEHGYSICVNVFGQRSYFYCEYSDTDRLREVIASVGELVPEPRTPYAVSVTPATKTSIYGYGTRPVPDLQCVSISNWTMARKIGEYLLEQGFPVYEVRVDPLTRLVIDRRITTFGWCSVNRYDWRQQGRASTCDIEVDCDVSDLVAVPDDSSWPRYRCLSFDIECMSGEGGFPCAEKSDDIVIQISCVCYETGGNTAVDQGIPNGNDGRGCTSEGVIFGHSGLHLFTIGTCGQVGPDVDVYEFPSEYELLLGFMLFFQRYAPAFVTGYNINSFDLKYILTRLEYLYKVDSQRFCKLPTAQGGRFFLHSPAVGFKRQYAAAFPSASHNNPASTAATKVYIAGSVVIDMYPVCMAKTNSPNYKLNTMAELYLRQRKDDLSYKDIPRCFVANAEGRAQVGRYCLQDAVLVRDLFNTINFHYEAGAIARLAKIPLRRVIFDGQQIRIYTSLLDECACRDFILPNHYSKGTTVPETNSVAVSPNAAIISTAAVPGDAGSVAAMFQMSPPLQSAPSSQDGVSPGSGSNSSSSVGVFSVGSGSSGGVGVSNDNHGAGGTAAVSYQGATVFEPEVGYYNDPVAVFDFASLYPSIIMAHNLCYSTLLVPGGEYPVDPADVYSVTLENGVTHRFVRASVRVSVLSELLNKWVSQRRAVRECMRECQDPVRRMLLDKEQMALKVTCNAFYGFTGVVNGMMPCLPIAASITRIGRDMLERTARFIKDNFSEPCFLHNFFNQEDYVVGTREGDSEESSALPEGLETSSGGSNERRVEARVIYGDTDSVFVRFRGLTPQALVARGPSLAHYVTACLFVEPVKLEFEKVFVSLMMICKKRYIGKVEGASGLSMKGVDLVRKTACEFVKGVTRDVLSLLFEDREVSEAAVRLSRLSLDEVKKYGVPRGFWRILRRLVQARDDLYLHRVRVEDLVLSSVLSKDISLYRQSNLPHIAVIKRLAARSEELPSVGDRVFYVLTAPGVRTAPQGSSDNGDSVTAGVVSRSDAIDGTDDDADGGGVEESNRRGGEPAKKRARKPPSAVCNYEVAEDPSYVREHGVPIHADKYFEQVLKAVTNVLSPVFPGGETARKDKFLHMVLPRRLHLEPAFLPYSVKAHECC
Chain of HSV polymerase (P04293 whole entry): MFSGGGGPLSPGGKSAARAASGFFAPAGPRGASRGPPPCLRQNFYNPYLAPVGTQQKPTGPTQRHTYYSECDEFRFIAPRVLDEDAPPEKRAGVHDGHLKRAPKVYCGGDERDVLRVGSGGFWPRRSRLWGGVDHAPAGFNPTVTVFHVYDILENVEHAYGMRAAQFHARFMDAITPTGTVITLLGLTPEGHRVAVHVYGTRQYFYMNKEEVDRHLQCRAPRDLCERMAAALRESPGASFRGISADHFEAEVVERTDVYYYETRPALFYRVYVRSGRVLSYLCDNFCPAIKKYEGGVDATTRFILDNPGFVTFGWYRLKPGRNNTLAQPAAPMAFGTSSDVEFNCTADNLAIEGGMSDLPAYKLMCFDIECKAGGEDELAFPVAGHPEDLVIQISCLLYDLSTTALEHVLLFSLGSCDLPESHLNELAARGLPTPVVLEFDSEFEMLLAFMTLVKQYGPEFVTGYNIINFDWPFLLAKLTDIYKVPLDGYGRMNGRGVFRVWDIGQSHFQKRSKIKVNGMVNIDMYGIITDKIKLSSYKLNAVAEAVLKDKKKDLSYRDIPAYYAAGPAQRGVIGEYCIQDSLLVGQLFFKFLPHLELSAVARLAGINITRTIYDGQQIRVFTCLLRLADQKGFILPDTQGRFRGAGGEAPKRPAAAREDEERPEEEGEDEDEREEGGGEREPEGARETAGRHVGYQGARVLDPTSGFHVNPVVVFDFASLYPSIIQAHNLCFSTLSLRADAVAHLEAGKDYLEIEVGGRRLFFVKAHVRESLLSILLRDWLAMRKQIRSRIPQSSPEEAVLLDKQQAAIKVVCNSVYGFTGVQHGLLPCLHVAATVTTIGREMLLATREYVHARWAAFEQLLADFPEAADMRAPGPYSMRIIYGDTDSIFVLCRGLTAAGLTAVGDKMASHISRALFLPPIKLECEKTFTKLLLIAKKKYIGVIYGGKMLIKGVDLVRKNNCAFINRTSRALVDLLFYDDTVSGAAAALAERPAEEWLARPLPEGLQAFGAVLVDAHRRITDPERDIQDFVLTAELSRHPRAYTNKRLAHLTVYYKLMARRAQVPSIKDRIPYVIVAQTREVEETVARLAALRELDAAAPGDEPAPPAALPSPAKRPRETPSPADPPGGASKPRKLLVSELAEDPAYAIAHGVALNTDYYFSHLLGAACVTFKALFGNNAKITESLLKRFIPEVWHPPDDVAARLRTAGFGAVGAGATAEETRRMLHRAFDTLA
Chain of VZV polymerase (P09252 whole entry): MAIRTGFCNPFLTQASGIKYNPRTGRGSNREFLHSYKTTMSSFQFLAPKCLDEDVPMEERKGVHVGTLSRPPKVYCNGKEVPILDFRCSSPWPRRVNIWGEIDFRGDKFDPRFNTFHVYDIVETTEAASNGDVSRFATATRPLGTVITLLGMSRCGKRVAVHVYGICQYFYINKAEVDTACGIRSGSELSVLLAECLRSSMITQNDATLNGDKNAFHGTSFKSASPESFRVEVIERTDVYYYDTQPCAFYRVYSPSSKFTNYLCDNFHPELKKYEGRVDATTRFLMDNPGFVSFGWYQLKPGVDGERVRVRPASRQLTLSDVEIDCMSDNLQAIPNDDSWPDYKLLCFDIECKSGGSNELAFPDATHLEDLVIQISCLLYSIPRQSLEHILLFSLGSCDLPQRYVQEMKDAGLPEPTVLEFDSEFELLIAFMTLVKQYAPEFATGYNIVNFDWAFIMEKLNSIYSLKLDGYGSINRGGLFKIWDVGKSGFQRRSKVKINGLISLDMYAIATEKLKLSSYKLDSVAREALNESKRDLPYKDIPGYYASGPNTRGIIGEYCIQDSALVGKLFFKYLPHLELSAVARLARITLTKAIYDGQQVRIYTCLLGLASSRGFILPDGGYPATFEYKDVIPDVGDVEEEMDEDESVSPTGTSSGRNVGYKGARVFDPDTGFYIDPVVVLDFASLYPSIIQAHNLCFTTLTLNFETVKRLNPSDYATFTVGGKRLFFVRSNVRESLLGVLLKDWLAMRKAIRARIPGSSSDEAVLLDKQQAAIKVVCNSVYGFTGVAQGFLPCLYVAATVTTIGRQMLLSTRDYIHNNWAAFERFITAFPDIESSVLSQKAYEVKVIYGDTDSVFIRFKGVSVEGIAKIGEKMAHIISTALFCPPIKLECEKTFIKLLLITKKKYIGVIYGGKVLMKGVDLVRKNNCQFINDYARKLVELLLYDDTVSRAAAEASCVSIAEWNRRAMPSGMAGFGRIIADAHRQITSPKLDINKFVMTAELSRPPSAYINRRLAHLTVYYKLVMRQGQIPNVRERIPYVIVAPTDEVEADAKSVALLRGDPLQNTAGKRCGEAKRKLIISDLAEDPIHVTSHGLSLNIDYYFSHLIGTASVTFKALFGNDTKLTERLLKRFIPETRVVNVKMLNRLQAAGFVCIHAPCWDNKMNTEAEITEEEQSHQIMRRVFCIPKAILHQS

Take `O=C(NCc1ccc(Cl)cc1)c1cn(-c2ccccc2)c2ccc(CN3CCOCC3)cc2c1=O` [Example 1, N-(4-Chlorobenzyl)-6-(4-morpholinylmethyl)-4-oxo-1-phenyl-1,4-dihydro-3-quinolinecarboxamide]: the melting point was in the range of 168 to 169 °C. Moreover, half-maximal inhibition against HSV polymerase (IC50) was put at 0.55 µM. In addition, on VZV polymerase, the IC50 is 0.4 µM. The compound further returned an IC50 on HCMV polymerase of 0.81 µM.

As to `Cc1ccccc1-n1cc(C(=O)NCc2ccc(Cl)cc2)c(=O)c2cc(CN3CCOCC3)ccc21` [Example 2, N-(4-Chlorobenzyl)-1-(2-methylphenyl)-6-(4-morpholinylmethyl)-4-oxo-1,4-dihydro-3-quinolinecarboxamide], the melting point was in the range of 148 to 150 °C. The same compound gave an IC50 at HCMV polymerase of 3 µM.

As to `O=C(NCc1ccc(Cl)cc1)c1cn(-c2cccc(I)c2)c2ccc(CN3CCOCC3)cc2c1=O` [Example 3, N-(4-Chlorobenzyl)-1-(3-iodophenyl)-6-(4-morpholinylmethyl)-4-oxo-1,4-dihydro-3-quinolinecarboxamide], the melting point lay within 176 to 179 °C. Also, half-maximal inhibition at HCMV polymerase (IC50) was put at 2.1 µM.

The compound `O=C(NCc1ccc(Cl)cc1)c1cn(-c2ccc(Cl)cc2)c2ccc(CN3CCOCC3)cc2c1=O` [Example 4, N-(4-Chlorobenzyl)-1-(4-chlorophenyl)-6-(4-morpholinylmethyl)-4-oxo-1,4-dihydro-3-quinolinecarboxamide] yielded a melting point of 189 to 191 °C. Further, the half-maximal inhibitory concentration (IC50) against HCMV polymerase is 1.1 µM.

As to `CC(C)c1ccc(-n2cc(C(=O)NCc3ccc(Cl)cc3)c(=O)c3cc(CN4CCOCC4)ccc32)cc1` [Example 5, N-(4-Chlorobenzyl)-1-(4-isopropylphenyl)-6-(4-morpholinylmethyl)-4-oxo-1,4-dihydro-3-quinolinecarboxamnide], the melting point was in the range of 199 to 203 °C. This compound also returned an IC50 at HCMV polymerase of 4 µM.

`COc1ccc(-n2cc(C(=O)NCc3ccc(Cl)cc3)c(=O)c3cc(CN4CCOCC4)ccc32)cc1` [Example 6, N-(4-Chlorobenzyl)-1-(4-methoxyphenyl)-6-(4-morpholinylmethyl)-4-oxo-1,4-dihydro-3-quinolinecarboxamide] yielded a melting point of 189 to 191 °C. This compound also showed an IC50 against HCMV polymerase of 1.1 µM.

`O=C(NCc1ccc(F)cc1)c1cn(-c2ccc(Cl)cc2)c2ccc(CN3CCOCC3)cc2c1=O` [Example 7, N-(4-Fluorobenzyl)-1-(4-chlorophenyl)-6-(4-morpholinylmethyl)-4-oxo-1,4-dihydro-3-quinolinecarboxamide] registered an IC50 against HCMV polymerase of 2 µM.

`O=C(NCc1ccc(Cl)cc1)c1cn(-c2ccccc2CO)c2ccc(CN3CCOCC3)cc2c1=O` [Example 8, N-(4-Chlorobenzyl)-1-(2-(hydroxymethyl)phenyl)-6-(4-morpholinylmethyl)-4-oxo-1,4-dihydro-3-quinolinecarboxamide] displayed a melting point of 162 to 163 °C. The midpoint of inhibition on HCMV polymerase, the IC50, lay at 1.47 µM.

As for `O=C(NCc1ccc(Cl)cc1)c1cn(-c2ccc3c(c2)CCC3)c2ccc(CN3CCOCC3)cc2c1=O` [Example 9, N-(4-Chlorobenzyl)-1-(2,3-dihydro-1H-inden-5-yl)-6-(4-morpholinylmethyl)-4-oxo-1,4-dihydro-3-quinolinecarboxamide], the melting point is 123 to 125 °C. Further, half-maximal inhibition on HCMV polymerase (IC50) required 1.32 µM.

Take `O=C(NCc1ccc(Cl)cc1)c1cn(-c2ccc3c(c2)OCO3)c2ccc(CN3CCOCC3)cc2c1=O` [Example 10, 1-(1,3-Benzodioxol-5-yl)-N-(4-chlorobenzyl)-6-(4-morpholinylmethyl)-4-oxo-1,4-dihydro-3-quinolinecarboxamide]: the melting point fell in the range of 188 to 189 °C. In addition, on HCMV polymerase, the IC50 came to 0.89 µM.

Turning to `O=C(NCc1ccc(Cl)cc1)c1cn(-c2ccc3[nH]ccc3c2)c2ccc(CN3CCOCC3)cc2c1=O` [Example 11, N-(4-Chlorobenzyl)-1-(1H-indol-5-yl)-6-(4-morpholinylmethyl)-4-oxo-1,4-dihydro-3-quinolinecarboxamide], the melting point fell in the range of 241 to 243 °C. The same compound returned an IC50 on HCMV polymerase of 1.18 µM.

`O=C(NCc1ccc(F)cc1)c1cn(-c2ccc3[nH]ccc3c2)c2ccc(CN3CCOCC3)cc2c1=O` [Example 12, N-(4-Fluorobenzyl)-1-(1 H-indol-5-yl)-6-(4-morpholinylmethyl)-4-oxo-1,4-dihydro-3-quinolinecarboxamide] displayed a melting point of 223 to 225 °C. The compound also came in with an IC50 against HCMV polymerase of 2.2 µM.

On to `O=C(NCc1ccc(F)cc1)c1cn(-c2cccc(CCO)c2)c2ccc(CN3CCOCC3)cc2c1=O` [Example 15, N-(4-Fluorobenzyl)-1-(3-(2-hydroxyethyl)phenyl)-6-(4-morpholinylmethyl)-4-oxo-1,4-dihydro-3-quinolinecarboxamide], for which the melting point lay within 128 to 132 °C. The compound further came in with an IC50 against HCMV polymerase of 1.7 µM.

As for `COc1cccc(-n2cc(C(=O)NCc3ccc(Cl)cc3)c(=O)c3cc(CN4CCOCC4)ccc32)c1` [Example 16, N-(4-Chlorobenzyl)-1-(3-methoxyphenyl)-6-(4-morpholinylmethyl)-4-oxo-1,4-dihydro-3-quinolinecarboxamide], the melting point fell in the range of 110 to 113 °C. Also, at HCMV polymerase, the IC50 came to 1.9 µM.

`O=C(NCc1ccc(Cl)cc1)c1cn(-c2ccc(N3CCOCC3)cc2)c2ccc(CN3CCOCC3)cc2c1=O` [Example 18, N-(4-Chlorobenzyl)-6-(4-morpholinylmethyl)-1-(4-(4-morpholinyl)phenyl)-4-oxo-1,4-dihydro-3-quinolinecarboxamide]: the melting point was 162 to 164 °C. Also, half-maximal inhibition at HCMV polymerase (IC50) required 1.21 µM.

As to `O=C(NCc1ccc(Cl)cc1)c1cn(-c2ccc(F)c(F)c2)c2ccc(CN3CCOCC3)cc2c1=O` [Example 19, N-(4-Chlorobenzyl)-1-(3,4-difluorophenyl)-6-(4-morpholinylmethyl)-4-oxo-1,4-dihydro-3-quinolinecarboxamide], the melting point lay within 107 to 110 °C. The compound further showed an IC50 against HCMV polymerase of 1.05 µM.

As to `O=C(NCc1ccc(Cl)cc1)c1cn(-c2cccc(C#CCCO)c2)c2ccc(CN3CCOCC3)cc2c1=O` [Example 21, N-(4-Chlorobenzyl)-1-(3-(4-hydroxy-1-butynyl)phenyl)-6-(4-morpholinylmethyl)-4-oxo-1,4-dihydro-3-quinolinecarboxamide], the melting point is 125 to 128 °C. For the same compound, on HCMV polymerase, the IC50 came to 1.13 µM.

On to `O=C(NCc1ccc(Cl)cc1)c1cn(-c2cccc(C#CCCCO)c2)c2ccc(CN3CCOCC3)cc2c1=O` [Example 22], for which the melting point lay within 125 to 128 °C. Also, it took 0.93 µM to reach half-maximal inhibition against HCMV polymerase (IC50).

Turning to `O=C(NCc1ccc(Cl)cc1)c1cn(-c2cccc(CCCCCO)c2)c2ccc(CN3CCOCC3)cc2c1=O` [Example 23, N-(4-Chlorobenzyl)-1-(3-(5-hydroxypentyl)phenyl)-6-(4-morpholinylmethyl)-4-oxo-1,4-dihydro-3-quinolinecarboxamide], the melting point lay within 142 to 144 °C. Further, on HCMV polymerase, the IC50 amounted to 0.76 µM.

Compound `O=C(NCc1ccc(Cl)cc1)c1cn(-c2cccc(CCCCO)c2)c2ccc(CN3CCOCC3)cc2c1=O` [Example 24, N-(4-Chlorobenzyl)-1-(3-(4-hydroxybutyl)phenyl)-6-(4-morpholinylmethyl)-4-oxo-1,4-dihydro-3-quinolinecarboxamide] had a melting point of 119 to 121 °C. Moreover, the IC50 against HCMV polymerase amounted to 0.68 µM.
